In patent US8946439B2, “Amide compounds, compositions and uses thereof” (Evotec AG, priority 2008, dated 2015):
Read-outs that look alike come from different tables or passages of the source.

How the values were obtained:
[1] = molecular target: T1, hP2X3 (Homo sapiens, UniProt P56373); test: Calcium uptake assay (P2X antagonist assay), P2X3 homomer; assay type: cell-based; conditions: hP2X3
T1 construct: expressed in transfected cells; host or cells: e.g. HEK293 or 1321N1
T1 sequence (P56373 1-397): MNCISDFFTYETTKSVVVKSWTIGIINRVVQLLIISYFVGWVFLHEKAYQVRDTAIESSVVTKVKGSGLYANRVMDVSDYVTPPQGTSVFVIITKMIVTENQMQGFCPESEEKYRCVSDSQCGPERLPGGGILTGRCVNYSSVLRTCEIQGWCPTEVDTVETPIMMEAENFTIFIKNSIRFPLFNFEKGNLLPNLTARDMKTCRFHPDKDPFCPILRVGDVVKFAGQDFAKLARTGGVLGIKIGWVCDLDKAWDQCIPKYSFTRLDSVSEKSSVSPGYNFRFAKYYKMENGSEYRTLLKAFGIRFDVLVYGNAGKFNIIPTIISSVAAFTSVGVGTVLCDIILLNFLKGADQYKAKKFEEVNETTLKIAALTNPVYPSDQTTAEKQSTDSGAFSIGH
In short: (§1)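 Stably or transiently transfected HEK293 or 1321N1 cells; the heteromer is made by adding P2X3 to a P2X2-stable line, with heteromer function isolated pharmacologically. The peak-minus-baseline FLIPR calcium signal gives % inhibition and a 4-parameter-logistic IC50.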

[2] = molecular target: T2, hP2X2/3H (Homo sapiens, UniProt P56373+Q9UBL9); test: Calcium uptake assay (P2X antagonist assay), P2X2/3 heteromer; assay type: cell-based; conditions: hP2X2/3H
T2 construct: expressed in transfected cells; host or cells: e.g. HEK293 or 1321N1
T2 sequence (Q9UBL9 1-471): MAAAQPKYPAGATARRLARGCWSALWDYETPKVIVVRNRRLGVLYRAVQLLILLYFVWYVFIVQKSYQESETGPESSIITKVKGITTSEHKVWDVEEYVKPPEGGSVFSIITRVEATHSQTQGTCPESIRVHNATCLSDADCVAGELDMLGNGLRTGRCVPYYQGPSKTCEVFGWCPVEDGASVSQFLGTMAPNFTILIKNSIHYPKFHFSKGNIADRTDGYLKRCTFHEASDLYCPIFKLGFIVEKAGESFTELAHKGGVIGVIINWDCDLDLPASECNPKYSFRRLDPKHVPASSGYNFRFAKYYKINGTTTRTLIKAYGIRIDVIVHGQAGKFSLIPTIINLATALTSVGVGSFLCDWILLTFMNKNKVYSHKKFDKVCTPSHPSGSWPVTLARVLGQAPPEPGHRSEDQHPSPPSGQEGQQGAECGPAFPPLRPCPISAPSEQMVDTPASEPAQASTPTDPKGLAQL
T2 sequence (P56373 1-397): T1 sequence (P56373 1-397)
In short: as §1

[3] = calcium uptake assay, read-out: IC50 hP2X3 (nM), Ca Influx
[4] = calcium uptake assay, read-out: IC50 hP2X2/3H (nM), Ca Influx
[5] = Ca influx (calcium uptake assay), read-out: IC50 hP2X3
[6] = Ca influx (calcium uptake assay), read-out: IC50 hP2X2/3H

SMILES | IC50 [1, 3] [nM] | IC50 [2, 4] [nM] | IC50 [1, 5] [nM] | IC50 [2, 6] [nM]
Cc1ccc(-c2cc(C(=O)N[C@H](C)c3ccc(C(F)(F)F)nc3)cc(C(=O)N3CC[C@@H](O)C3)c2)nc1 [Compound 150] | < 100 | < 100 | – | –
Cc1ccc(-c2cc(C(=O)NCc3ccc(C)nc3)cc(C(F)(F)F)c2)cc1 [Compound 204] | – | – | > 1000 | 501 to 1000
Cc1ccc(-c2cc(C(=O)NCc3ccc(C)nc3)cc(S(=O)(=O)CC(C)C)c2)cc1 [Compound 183] | < 100 | < 100 | – | –
Cc1ccc(-c2cc(C(=O)NCc3ccc(Cl)cc3Cl)cc(S(C)(=O)=O)c2)nc1 [Compound 385] | – | – | 100 to 500 | 100 to 500
Cc1ccc(-c2cc(C(=O)NCc3ccc(C)nc3)cc(C(=O)N3CCN(c4nccs4)CC3)c2)cc1 [Compound 127, 4′-Methyl-N-((6-methylpyridin-3-yl)methyl)-5-(4-(thiazol-2-yl)piperazine-1-carbonyl)biphenyl-3-carboxamide] | < 100 | 100 to 500 | – | –
Cc1ccc(-c2cc(C(=O)NCc3cnc(C)cn3)cc(C(=O)N3CCCC3)c2)cc1 [Compound 51] | < 100 | < 100 | – | –
Cc1ccc(-c2cc(C(=O)NCc3ccc(C)nc3)cc(C(O)c3ccccc3)c2)cc1 (centres unmarked) [Compound 228] | – | – | 100 to 500 | 100 to 500
Cc1ccc(-c2cc(C(=O)NCc3ccc(C)nc3)cc(C(=O)N3CCc4ccccc4C3)c2)cc1 [Compound 187, 4′-Methyl-N-((6-methylpyridin-3-yl)methyl)-5-(1,2,3,4-tetrahydroisoquinoline-2-carbonyl)biphenyl-3-carboxamide] | 100 to 500 | 100 to 500 | – | –
CCS(=O)(=O)c1cc(C(=O)NCc2cnc(C)nc2)cc(-c2ccc(C)cc2)c1 [Compound 212] | – | – | < 100 | < 100
Cc1ccc(-c2cc(Oc3nccs3)cc(C(=O)N[C@H](C)c3cnc(C)nc3)c2)cc1 [Compound 236, (R)-4′-Methyl-N-(1-(2-methylpyrimidin-5-yl)ethyl)-5-(thiazol-2-yloxy)biphenyl-3-carboxamide] | – | – | < 100 | < 100
Cc1ccc(-c2cc(C(=O)N[C@H](CO)c3cnc(C)nc3)cc(C(=O)N3CCCC3)c2)cc1 [Compound 96] | < 100 | < 100 | – | –
Cc1ccc(-c2cc(C(=O)NCc3ccc(C(F)(F)F)nc3)cc(C(=O)N3CCCC3)c2)c(C#N)c1 [Compound 62, 2′-Cyano-4′-methyl-5-(pyrrolidine-1-carbonyl)-N-((6-(trifluoromethyl)pyridin-3-yl)methyl)biphenyl-3-carboxamide] | < 100 | 100 to 500 | – | –
Cc1ccc(-c2cc(C(=O)NCc3ccc(C)nc3)cc(C(O)CN3CCOCC3CO)c2)cc1 (centres unmarked) [Compound 390] | – | – | < 100 | < 100
Cc1ccc(-c2cc(C(=O)NCc3cnc(C)nc3)cc(C(=O)N3CCCCCC3)c2)cc1 [Compound 19, 5-(Azepane-1-carbonyl)-4′-methyl-N-((2-methylpyrimidin-5-yl)methyl)biphenyl-3-carboxamide] | < 100 | < 100 | – | –
Cc1ccc(-c2cc(C(=O)NCc3ccc(C(F)(F)F)nc3)cc(C(=O)N3CC[C@@H](O)C3)c2)nc1 [Compound 146] | < 100 | < 100 | – | –
Cc1ccc(-c2cc(C#N)cc(C(=O)NCc3cnc(C)nc3)c2)cc1 [Compound 154] | 100 to 500 | 100 to 500 | – | –
Cc1ccc(-c2cc(C(=O)NCc3cnc(C)nc3)cc(C(=O)N3CCCC3C(F)(F)F)c2)cc1 (centres unmarked) [Compound 33] | < 100 | < 100 | – | –
Cc1ccc(-c2cc(C(=O)NCc3cnc(C)nc3)cc(C(=O)N3CCC3)c2)cc1 [Compound 30] | < 100 | < 100 | – | –
Cc1ccc(-c2cc(C(=O)N[C@H](C)c3ccc(C)nc3)cc(C(=O)c3ccccc3)c2)cc1 [Compound 229, (R)-5-Benzoyl-4′-methyl-N-(1-(6-methylpyridin-3-yl)ethyl)biphenyl-3-carboxamide] | – | – | 100 to 500 | < 100
COCc1cc(C(=O)N[C@H](C)c2cnc(C)nc2)cc(-c2ccc(C)cn2)c1 [Compound 274, (R)-3-(Methoxymethyl)-5-(5-methylpyridin-2-yl)-N-(1-(2-methylpyrimidin-5-yl)ethyl)benzamide] | – | – | 100 to 500 | 100 to 500
Cc1ccc(-c2cc(C(=O)N[C@H](C)c3ccc(C)nc3)cc(S(=O)(=O)C3CCCC3)c2)cc1 [Compound 218] | – | – | < 100 | < 100
Cc1ncc([C@@H](C)NC(=O)c2cc(-c3ccccc3)cc(S(C)(=O)=O)c2)cn1 [Compound 370] | – | – | < 100 | 501 to 1000
Cc1ccc(-c2cc(C(=O)N[C@H](C)c3cnc(C)nc3)cc(C(=O)N3CCCC3)c2)cc1 [Compound 52] | < 100 | < 100 | – | –
Cc1ccc(-c2cc(C(=O)NCc3ccc(Cl)c(S(=O)(=O)NC4CC4)c3)cc(C(=O)N3CCCC3)c2)cc1 [Compound 73, N-(4-Chloro-3-(N-cyclopropylsulfamoyl)benzyl)-4′-methyl-5-(pyrrolidine-1-carbonyl)biphenyl-3-carboxamide] | 100 to 500 | 501 to 1000 | – | –
Cc1ncc(CNC(=O)c2cc(C(=O)N3CCCC3)cc(-c3ccc(F)cn3)c2)cn1 [Compound 99] | > 1000 | > 1000 | – | –
Cc1ccc(-c2cc(C(N)=O)cc(C(=O)NCc3ccc(C)nc3)c2)cc1 [Compound 161] | < 100 | 100 to 500 | – | –
Cc1ccc(-c2cc(C(=O)N[C@H](C)c3cnc(C)nc3)cc(C(O)c3ccccn3)c2)cc1 (some centres unmarked) [Compound 268] | – | – | < 100 | < 100
Cc1ccc(-c2cc(C(=O)NCc3ccc4c(c3)S(=O)(=O)CC4)cc(C(=O)N3CCCC3)c2)cc1 [Compound 72] | < 100 | < 100 | – | –
Cc1ccc(-c2cc(C(=O)NCc3ccc(C)nc3)cc(C(=O)N3CCNC(C)C3)c2)cc1 (centres unmarked) [Compound 126] | < 100 | 100 to 500 | – | –

The next lines start with the values.

IC50 [1, 3] [nM] | IC50 [2, 4] [nM] | IC50 [1, 5] [nM] | IC50 [2, 6] [nM] | SMILES
– | – | < 100 | < 100 | Cc1ccc(-c2cc(C(=O)N[C@H](C)c3ccc(C)nc3)cc(C(O)c3nccs3)c2)c(C#N)c1 (some centres unmarked) [Compound 294]
– | – | < 100 | 100 to 500 | Cc1ccc(-c2cc(C(=O)N[C@H](C)c3cnc(C)nc3)cc(C(O)CO)c2)c(C#N)c1 (some centres unmarked) [Compound 360]
– | – | < 100 | 100 to 500 | Cc1ccc(-c2cc(OCC(O)CO)cc(C(=O)N[C@H](C)c3ccc(C)nc3)c2)c(C#N)c1 (stereo partly drawn) [Compound 315, 2′-Cyano-5-(2,3-dihydroxypropoxy)-4′-methyl-N—((R)-1-(6-methylpyridin-3-yl)ethyl)biphenyl-3-carboxamide]
– | – | < 100 | < 100 | CCC(O)c1cc(C(=O)N[C@H](C)c2cnc(C)nc2)cc(-c2ccc(C)cc2C#N)c1 (some centres unmarked) [Compound 396]
– | – | < 100 | < 100 | COCC(OC)c1cc(C(=O)N[C@H](C)c2ccc(C)nc2)cc(-c2ccc(C)cc2)c1 (some centres unmarked) [Compound 380]
– | – | < 100 | < 100 | Cc1ccc(-c2cc(C(=O)N[C@H](C)c3ccc(C)nc3)cc(C(O)C(F)(F)F)c2)c(C#N)c1 (stereo partly drawn) [Compound 295, 2′-Cyano-4′-methyl-N—((R)-1-(6-methylpyridin-3-yl)ethyl)-5-(2,2,2-trifluoro-1-hydroxyethyl)biphenyl-3-carboxamide]
– | – | < 100 | < 100 | Cc1ccc(-c2cc(C(=O)NCc3ccc(C)nc3)cc(C(O)C(F)(F)F)c2)c(C#N)c1 (centres unmarked) [Compound 296]
– | – | < 100 | < 100 | Cc1ccc(-c2cc(OCC3COCCO3)cc(C(=O)N[C@H](C)c3ccc(C)nc3)c2)c(C#N)c1 (some centres unmarked) [Compound 317]
– | – | < 100 | 100 to 500 | COCCOc1cc(C(=O)NCc2cnc(C)nc2)cc(-c2ccc(C)cc2C#N)c1 [Compound 262]
< 100 | < 100 | – | – | Cc1ccc(-c2cc(C(=O)NCc3ccc(C)nc3)cc(C(=O)N3CCCC3)c2)c(C#N)c1 [Compound 61]
– | – | 100 to 500 | < 100 | Cc1ccc(-c2cc(Oc3nc(Cl)cs3)cc(C(=O)N[C@H](C)c3ccc(C)nc3)c2)cc1 [Compound 341]
– | – | < 100 | < 100 | Cc1ccc(-c2cc(C(=O)N[C@H](C)c3ccc(C)nc3)cc(C(O)c3ccccn3)c2)nc1 (some centres unmarked) [Compound 287]
– | – | < 100 | < 100 | Cc1ccc(-c2cc(Oc3nccs3)cc(C(=O)N[C@H](C)c3ccc(C)nc3)c2)cc1 [Compound 239]
– | – | < 100 | < 100 | Cc1ccc(-c2cc(OCCO)cc(C(=O)N[C@H](C)c3ccc(C)nc3)c2)cc1 [Compound 302]
